The record followed here is ChEMBL document CHEMBL1127465, “Rational design, synthesis, and crystallographic analysis of a hydroxyethylene-based HIV-1 protease inhibitor containing a heterocyclic P1'--P2' amide bond isostere” (J Med Chem, 1994).

The experiment addresses Human immunodeficiency virus type 1 protease (Human immunodeficiency virus 1, UniProt Q72874). Description: Apparent inhibition constant against recombinant HIV-1 protease.
With `CC(C)[C@@H](NC(=O)[C@@H](Cc1ccccc1)NCC(O)C(=O)[C@H](Cc1ccccc1)NC(=O)[C@H](C)NC(=O)OCc1ccccc1)C(=O)O` (stereo not given in full), the Ki stood at 0.7 nM.
The same measure for `CC(C)(C)OC(=O)N[C@@H](Cc1ccccc1)C(=O)C(O)CN[C@@H](Cc1ccccc1)C(=O)NCC(N)=O` (stereo not given in full): 120 nM; for `CCC(=O)c1cnc([C@H](Cc2ccccc2)C[C@H](O)[C@H](Cc2ccccc2)NC(=O)OC(C)(C)C)[nH]1`: 92 nM; for `CC(C)C(=O)c1cnc([C@H](Cc2ccccc2)C[C@H](O)[C@H](Cc2ccccc2)NC(=O)OC(C)(C)C)[nH]1`: 83 nM.
The same measure for `CCCC(=O)c1c[nH]c([C@H](Cc2ccccc2)C[C@H](O)[C@H](Cc2ccccc2)NC(=O)OC(C)(C)C)n1`: 150 nM.
The same measure for `CC(=O)c1c[nH]c([C@H](Cc2ccccc2)C[C@H](O)[C@H](Cc2ccccc2)NC(=O)OC(C)(C)C)n1`: 370 nM.
`C=CC(C)(C)C(=O)c1cnc([C@H](Cc2ccccc2)C[C@H](O)[C@H](Cc2ccccc2)NC(=O)OC(C)(C)C)[nH]1`: the Ki came to 270 nM.
For `CC(C)C(O)c1cnc([C@H](Cc2ccccc2)C[C@H](O)[C@H](Cc2ccccc2)NC(=O)OC(C)(C)C)[nH]1` (stereo not given in full), the Ki was determined as 2700 nM.
For the molecule `CC(C)(C)OC(=O)N[C@@H](Cc1ccccc1)[C@@H](O)C[C@@H](Cc1ccccc1)c1nc(C=O)c[nH]1`, the Ki was 3500 nM.
The figure for `CC(O)c1cnc([C@H](Cc2ccccc2)C[C@H](O)[C@H](Cc2ccccc2)NC(=O)OC(C)(C)C)[nH]1` (stereo not given in full) is 13300 nM.
